Assays:
Assay type in all cases: in vivo
Echinochloa crus-galli [1] = test: Herbicidal activity by field foliage treatment (Test example 3); design: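 index 0 to 10 in 10% steps of herbicidal effect with 10 meaning complete death and 0 below 10%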; conditions: 1000 g effective component per hectare, day 14 after the treatment
Method in brief: (§1)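 Potted field-soil plants grown 2 weeks in a greenhouse were sprayed over the whole foliage with diluted wettable powder at 1000 L/ha, delivering 1000 g active ingredient per hectare. Herbicidal effect scored by visual criteria 14 days after treatment.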

foxtail = test: Herbicidal activity by field soil treatment (Test example 2); conditions: 1000 g effective component per hectare, day 21 after the treatment;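 also: index 0 to 10 in 10% steps of herbicidal effect with 10 meaning complete death and 0 below 10%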
Description: [table] Test for Determining Herbicidal Activity by Field Soil Treatment A 80 cm^2 wide plastic pot was filled with a field soil and seeds of each of Echinochloa crus-galli, foxtail, Indian millet, and A. retroflexus were sowed and then covered with soil. The wettable powder produced with reference to the Formulation example 1 was diluted water, and applied on the soil surface by using a small sprayer in an amount of 1000 liters per hectare so that the effective component is 1000 g per hectare. After that, the plants were cultivated in a greenhouse, and on day 21 after the treatment, evaluation was made by the criteria described in Table 72 for determining the herbicidal effects.

Monochoria vaginalis = test: Herbicidal activity by paddy field soil treatment (Test Example 1); design: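 index 0 to 10 in 10% steps of herbicidal effect with 10 meaning complete death and 0 below 10%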; conditions: 1000 g of effective component per hectare, evaluated on day 21 after the treatment, criteria of Table 72
Method in brief: (§2)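 Paddy soil in pots sown with seeds, flooded to 3 cm; next day wettable powder diluted in water applied to water surface at 1000 g active ingredient/ha. Greenhouse-grown; herbicidal effect scored on day 21 after treatment against rating criteria.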

Scirpus juncoides Rocxb. = test: as above; design: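 index 0 to 10 in 10% steps of herbicidal effect with 10 meaning complete death and 0 below 10%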; conditions: applied on water surface, 1000 g of effective component per hectare, day 21 after the treatment
Method in brief: as §2

Echinochloa oryzicola = test: as above; design: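 index 0 to 10 in 10% steps of herbicidal effect with 10 meaning complete death and 0 below 10%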; conditions: 1000 g of effective component per hectare, evaluated on day 21 after the treatment, criteria of Table 72
Method in brief: as §2

A. retroflexus [2] = test: Herbicidal activity by field foliage treatment (Test example 3); design: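 index 0 to 10 in 10% steps of herbicidal effect with 10 meaning complete death and 0 below 10%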; conditions: 1000 g effective component per hectare, day 14 after the treatment
Method in brief: (§3)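 Field soil in pots; Indian millet and A. retroflexus grown 2 weeks in greenhouse, then sprayed over whole plant with water-diluted wettable powder at 1000 L/ha, giving 1000 g active component/ha. Herbicidal effect scored by set criteria on day 14 after treatment.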

Indian millet [3] = test: as above; design: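 index 0 to 10 in 10% steps of herbicidal effect with 10 meaning complete death and 0 below 10%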; conditions: 1000 g effective component per hectare, day 14 after the treatment
Method in brief: as §3

A. retroflexus [4] = test: Herbicidal activity by field soil treatment (Test example 2); design: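 index 0 to 10 in 10% steps of herbicidal effect with 10 meaning complete death and 0 below 10%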; conditions: 1000 g effective component per hectare, day 21 after the treatment
Method in brief: (§4)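 Seeds of the four weeds sown in field soil in pots; wettable powder diluted in water sprayed pre-emergence on soil surface at 1000 L/ha, giving 1000 g active per hectare. Greenhouse grown; herbicidal effect scored on day 21 after treatment by set criteria.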

Echinochloa crus-galli [5] = test: as above; design: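 index 0 to 10 in 10% steps of herbicidal effect with 10 meaning complete death and 0 below 10%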; conditions: 1000 g effective component per hectare, day 21 after the treatment
Method in brief: as §4

Indian millet [6] = test: as above; design: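 index 0 to 10 in 10% steps of herbicidal effect with 10 meaning complete death and 0 below 10%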; conditions: 1000 g effective component per hectare, day 21 after the treatment
Method in brief: as §4

Setaria viridis = test: Herbicidal activity by field foliage treatment (Test example 3); conditions: 1000 g effective component per hectare, day 14 after the treatment;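 also: index 0 to 10 in 10% steps of herbicidal effect with 10 meaning complete death and 0 below 10%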
Method in brief: as §1

Structure (SMILES): Cn1nc(C(=O)C2=C(O)CCCC2=O)c(=O)n(-c2cccc(Cl)c2Cl)c1=O [I-83]
- herbicidal effect index, Echinochloa crus-galli (Echinochloa crus-galli [1]): 10
- herbicidal effect index, Setaria viridis (foxtail): 9
- Herbicidal effects index number, Monochoria vaginalis (Monochoria vaginalis): 10
- herbicidal effect index, S. juncoides Rocxb. (Scirpus juncoides Rocxb.): 10
- Herbicidal effects index number, Echinochloa oryzicola (Echinochloa oryzicola): 10
- herbicidal effect index, Amaranthus retroflexus (A. retroflexus [2]): 10
- herbicidal effect index, Abutilon theophrasti (Indian millet [3]): 10
- herbicidal effect index, Amaranthus retroflexus (A. retroflexus [4]): 10
- herbicidal effect index, Echinochloa crus-galli (Echinochloa crus-galli [5]): 9
- herbicidal effect index, Abutilon theophrasti (Indian millet [6]): 10
- herbicidal effect index, Setaria viridis (Setaria viridis): 10

Structure (SMILES): Cc1c(F)cccc1-n1c(=O)c(C(=O)C2=C(O)CCCC2=O)nn(C)c1=O [I-116]
- herbicidal effect index, Echinochloa crus-galli (Echinochloa crus-galli [1]): 9
- herbicidal effect index, Setaria viridis (foxtail): 9
- Herbicidal effects index number, Monochoria vaginalis (Monochoria vaginalis): 10
- herbicidal effect index, S. juncoides Rocxb. (Scirpus juncoides Rocxb.): 10
- Herbicidal effects index number, Echinochloa oryzicola (Echinochloa oryzicola): 10
- herbicidal effect index, Amaranthus retroflexus (A. retroflexus [2]): 8
- herbicidal effect index, Abutilon theophrasti (Indian millet [3]): 9
- herbicidal effect index, Amaranthus retroflexus (A. retroflexus [4]): 10
- herbicidal effect index, Echinochloa crus-galli (Echinochloa crus-galli [5]): 10
- herbicidal effect index, Abutilon theophrasti (Indian millet [6]): 10
- herbicidal effect index, Setaria viridis (Setaria viridis): 9

Structure (SMILES): Cc1cc(F)ccc1-n1c(=O)c(C(=O)C2=C(O)CCCC2=O)nn(C)c1=O [I-117]
- herbicidal effect index, Echinochloa crus-galli (Echinochloa crus-galli [1]): 9
- herbicidal effect index, Setaria viridis (foxtail): 7
- Herbicidal effects index number, Monochoria vaginalis (Monochoria vaginalis): 10
- herbicidal effect index, S. juncoides Rocxb. (Scirpus juncoides Rocxb.): 10
- Herbicidal effects index number, Echinochloa oryzicola (Echinochloa oryzicola): 10
- herbicidal effect index, Amaranthus retroflexus (A. retroflexus [2]): 8
- herbicidal effect index, Abutilon theophrasti (Indian millet [3]): 9
- herbicidal effect index, Amaranthus retroflexus (A. retroflexus [4]): 10
- herbicidal effect index, Echinochloa crus-galli (Echinochloa crus-galli [5]): 10
- herbicidal effect index, Abutilon theophrasti (Indian millet [6]): 10
- herbicidal effect index, Setaria viridis (Setaria viridis): 9

Structure (SMILES): COc1cc(-n2c(=O)c(C(=O)C3=C(O)CCCC3=O)nn(C)c2=O)c(F)cc1Cl [I-297]
- herbicidal effect index, Echinochloa crus-galli (Echinochloa crus-galli [1]): 9
- herbicidal effect index, Setaria viridis (foxtail): 9
- Herbicidal effects index number, Monochoria vaginalis (Monochoria vaginalis): 10
- herbicidal effect index, S. juncoides Rocxb. (Scirpus juncoides Rocxb.): 10
- Herbicidal effects index number, Echinochloa oryzicola (Echinochloa oryzicola): 10
- herbicidal effect index, Amaranthus retroflexus (A. retroflexus [2]): 8
- herbicidal effect index, Abutilon theophrasti (Indian millet [3]): 8
- herbicidal effect index, Amaranthus retroflexus (A. retroflexus [4]): 10
- herbicidal effect index, Echinochloa crus-galli (Echinochloa crus-galli [5]): 10
- herbicidal effect index, Abutilon theophrasti (Indian millet [6]): 9
- herbicidal effect index, Setaria viridis (Setaria viridis): 9

Structure (SMILES): Cn1nc(C(=O)C2=C(O)CCCC2=O)c(=O)n(-c2ccc(F)cc2)c1=O [I-56]
- herbicidal effect index, Echinochloa crus-galli (Echinochloa crus-galli [1]): 10
- herbicidal effect index, Setaria viridis (foxtail): 10
- Herbicidal effects index number, Monochoria vaginalis (Monochoria vaginalis): 10
- herbicidal effect index, S. juncoides Rocxb. (Scirpus juncoides Rocxb.): 10
- Herbicidal effects index number, Echinochloa oryzicola (Echinochloa oryzicola): 10
- herbicidal effect index, Amaranthus retroflexus (A. retroflexus [2]): 10
- herbicidal effect index, Abutilon theophrasti (Indian millet [3]): 10
- herbicidal effect index, Amaranthus retroflexus (A. retroflexus [4]): 9
- herbicidal effect index, Echinochloa crus-galli (Echinochloa crus-galli [5]): 10
- herbicidal effect index, Abutilon theophrasti (Indian millet [6]): 10
- herbicidal effect index, Setaria viridis (Setaria viridis): 10

Structure (SMILES): Cc1cccc(C)c1-n1c(=O)c(C(=O)C2=C(O)CCCC2=O)nn(C)c1=O [I-92]
- herbicidal effect index, Echinochloa crus-galli (Echinochloa crus-galli [1]): 10
- herbicidal effect index, Setaria viridis (foxtail): 9
- Herbicidal effects index number, Monochoria vaginalis (Monochoria vaginalis): 10
- herbicidal effect index, S. juncoides Rocxb. (Scirpus juncoides Rocxb.): 10
- Herbicidal effects index number, Echinochloa oryzicola (Echinochloa oryzicola): 10
- herbicidal effect index, Amaranthus retroflexus (A. retroflexus [2]): 10
- herbicidal effect index, Abutilon theophrasti (Indian millet [3]): 10
- herbicidal effect index, Amaranthus retroflexus (A. retroflexus [4]): 10
- herbicidal effect index, Echinochloa crus-galli (Echinochloa crus-galli [5]): 9
- herbicidal effect index, Abutilon theophrasti (Indian millet [6]): 10
- herbicidal effect index, Setaria viridis (Setaria viridis): 10

Structure (SMILES): CCCn1c(=O)c(C(=O)C2=C(O)CCCC2=O)nn(C)c1=O [I-3]
- herbicidal effect index, Echinochloa crus-galli (Echinochloa crus-galli [1]): 9
- herbicidal effect index, Setaria viridis (foxtail): 10
- Herbicidal effects index number, Monochoria vaginalis (Monochoria vaginalis): 10
- herbicidal effect index, S. juncoides Rocxb. (Scirpus juncoides Rocxb.): 10
- Herbicidal effects index number, Echinochloa oryzicola (Echinochloa oryzicola): 10
- herbicidal effect index, Amaranthus retroflexus (A. retroflexus [2]): 9
- herbicidal effect index, Abutilon theophrasti (Indian millet [3]): 9
- herbicidal effect index, Amaranthus retroflexus (A. retroflexus [4]): 10
- herbicidal effect index, Echinochloa crus-galli (Echinochloa crus-galli [5]): 10
- herbicidal effect index, Abutilon theophrasti (Indian millet [6]): 10
- herbicidal effect index, Setaria viridis (Setaria viridis): 9
